{
  "source": "patent US20260191889A1",
  "about": "“TREHALOSE FOR TREATING HUNTINGTON'S DISEASE” (GLD Debt Acquisition 2025-1, priority 2022, published 2026)",
  "key": {"[1]": {"assay": "Safety profile from previous clinical trials of trehalose injection", "assay_type": "in vivo, human", "conditions": "metabolized by trehalase enzymes into 2 glucose molecules", "description": "Risks of study participation also includes the risk of an infusion reaction or infusion site reactions. […] If needed, the use of an implanted venous access device (i.e., Mediport) or percutaneous indwelling catheter is permitted; however, if small caliber indwelling catheters in peripheral vessels is required, they should be for single use only. Additional risks include those risks related to venipuncture (e.g., hematoma, bleeding, pain, infection), which are low, and the risk of progression of disease for participants assigned to receive."}, "[2]": {"test_system": "transgenic R6/2 mice (a disease model for Huntington's Disease)", "assay": "Body weight of R6/2 mice after treatment with MT", "assay_type": "in vivo, Mus musculus", "conditions": "MT 5 g/kg i.p. 5 times per week, average±standard error (±0.6), vehicle 16.5, wild-type 30.7", "method": "Eleven male mice were treated with trehalose 5 g/kg (i.p. injection, 25 ml/kg, trehalose dose formulation concentration: 0.2 g/ml, with active trehalose corresponding to 5.252 g/kg of trehalose dihydrate), 5 times per week starting at 4 weeks of age. There were a total of 41 doses or doses stopped when mice were euthanized. Mice were euthanized at 8 weeks after first trehalose dose (12 weeks of age, n=8). n=3 mice/group were monitored until survival.\nBody Weights—Body weights were monitored twice per week throughout the study for all animals. Pre-trehalose treatment onset baseline body weight was used to assign the animals to experimental groups. Terminal body weights were not registered from animals found dead or euthanized moribund.\nMT was administered to mice i.p. 5 times per week (from Monday to Friday). Dose volume was 25 ml/kg. Dose was 5 g/kg. Pure trehalose dose formulation concentration was 0.2 g/ml. The last dose of animals euthanized at 8 weeks post infusion (age week 12) was 30 min prior to terminal sampling.\nBody Weight—Comparisons between two groups used a two-way Mixed-effects model (Mixed Anova) with Geisser-Greenhouse correction (not assuming sphericity), followed by Fisher's LSD test between the two groups performed for each time point. Time, group and the interaction of Time×Group were fixed effects, and the individual subject was the random effect. […]"}, "[3]": {"conditions": "administered orally in humans; cleaved by gut trehalase; cited from earlier work"}, "[4]": {"test_system": "Huntington's disease (HD)", "assay": "Clinical scores of a subject with HD on weekly IV trehalose", "assay_type": "in vivo, human", "method": "This study consisted of a 2-week screening period, a 24-week open-label treatment period, and a 2-week safety follow-up period. Eligible subjects received substantially purified trehalose, administered as a once weekly IV infusion over 60 minutes±5 min for volumes≤600 mL or 90 minutes±5 min for volumes>600 mL. The total volume of the infusion was based on the weight of the subject and a dose of 0.75 g trehalose per kg of subject weight (g/kg). An additional 52 weeks of open-label trehalose treatment was planned for consenting subjects who were determined to be medically appropriate after their completion of the primary 24-week open-label treatment period. The primary study objectives were to determine safety and tolerability, and treatment responses associated with trehalose administered to subjects with HD. Safety and tolerability were determined by incidences of treatment-emergent adverse events (TEAEs) and serious adverse events ([…]), including clinically significant laboratory or diagnostic testing abnormalities. Laboratory samples, electrocardiograms (ECGs), and a rating on the Columbia Suicide Severity Rating Scale (C-SSRS) were obtained from the subject at the screening/baseline and during week 4, week 12, and week 24. Physical and neurological examinations of the subject were conducted at the screening/baseline and during week 12 and week 24. Vital signs and adverse events (AEs) of the subject were obtained at visits for study drug infusions and any unscheduled visits. In addition, AEs of the subject were obtained by scheduled or unscheduled telephone communications. Treatment responses were determined by assessments and comparative analyses of the following clinical scores that were obtained at the screening/baseline and follow-up study visits. All subjects completed the Patient Global Impression of Change (PGIC), the Clinical Global Impression of Change (CGIC), and the Clinical Global Impression of Severity (CGI-S) during week 4, week 8, week 12, week 18, and week 24. In addition, all participants completed the Patient's Global Impression of Severity (PGI-S), EQ Visual Analog Scale (EQ-VAS), and the CGI-S on day 1 and during week 4, week 8, week 12, week 18, and week 24. At the screening/baseline and during week 4, week 8, week 12, week 18, and week 24, subjects completed the UHDRS-TFC and the UHDRS-Independence Scale."}, "[5]": {"conditions": "3 months (12 weeks), 0.75 g/kg IV once weekly"}, "[6]": {"conditions": "after 3 months (12 weeks), 0.75 g/kg IV once weekly"}},
  "data": [
    {"smiles": "OC[C@H]1O[C@H](O[C@H]2O[C@H](CO)[C@@H](O)[C@H](O)[C@H]2O)[C@H](O)[C@@H](O)[C@@H]1O", "note": "[MT, trehalose]", "values": [
      {"measurement": "active metabolites", "setting": "[1]", "value": "no active metabolites"},
      {"measurement": "average final body weight", "setting": "[2]", "value": 21.5, "unit": "g"},
      {"measurement": "trehalose reaching systemic circulation", "setting": "[3]", "value": "< 0.5", "unit": "%"},
      {"measurement": "CGI-S rating", "setting": "[4]; 3 months (12 weeks)", "value": "A Little Better"},
      {"measurement": "CGIC rating", "setting": "[4]; 3 months (12 weeks)", "value": "A Little Better"},
      {"measurement": "change in the UHDRS Functional Capacity", "setting": "[4]; [5]", "value": "no change"},
      {"measurement": "change in the UHDRS Independence Scale", "setting": "[4]; [5]", "value": "no change"},
      {"measurement": "Global impression of Health on a Visual Analog Scale", "setting": "[4]; [6]", "value": 90},
      {"measurement": "mini-mental status examination (MMSE) score", "setting": "[4]; [6]", "value": 27},
      {"measurement": "Global impression of Health on a Visual Analog Scale", "setting": "[4]; baseline", "value": 70},
      {"measurement": "mini-mental status examination (MMSE) score", "setting": "[4]; baseline", "value": 26}
    ]}
  ]
}
